Laboratory results taken from paper PMC9814901, “One-pot synthesis of cyclic-aminotropiminium carboxylate derivatives with DNA binding and anticancer properties” (Communications Chemistry, 2022).

Key:
[1] = system: HeLa cells; experiment: Scratch (wound healing) assay in HeLa; assay type: cell-based; conditions: 6e 18 μM, 6j 19.23 μM, 6n 18.92 μM, 0 h to 24 h
Protocol: HeLa and HEK293 cells (0.25 × 10^6) were seeded into 12-well plates to grow in a monolayer for 24 h. A Scratch was made in the middle of the well using a sterile 200 µl pipette tip. The detached cells were removed by washing with 1x DPBS. The cell monolayers were treated for 18 h with 19 µM of 6n and 6j, and 18 µM of 6e with 10% DMEM. DMSO with 10% DMEM was used as a control. Images were collected at 0 h and 24 h under an inverted microscope (Ziess, Germany) at (4×) magnification. Cell migration was analyzed using ImageJ (NIH) software.

[2] = system: p38-p53 pathway and EMT markers in HeLa cells; experiment: Western blot of p38-p53 pathway and EMT markers; assay type: cell-based
Protocol: In order to figure out the mechanism of apoptosis induction, we analyzed the effect of different concentrations of 6e (0 μM, 4 μM, 9 μM, 14 μM and 18 μM), 6j (0 μM, 5 μM, 10 μM, 15 μM and 19 μM), and 6n (0 μM, 5 μM, 10 μM, 15 μM and 19 μM) compounds on p38-p53 pathway.
Cell lysates were prepared from HeLa treated with compounds 6e, 6j, and 6n in ice-cold RIPA buffer (Thermo Scientific, USA), and supplemented with protease and phosphatase inhibitor cocktail (Thermo Scientific, USA). Protein quantification of cell lysates was done using BCA reagent (Thermo Scientific). 20 µg of protein samples were separated on a 12% SDS-PAGE and subsequently transferred onto a PVDF membrane (Merck Millipore, USA). The blots were probed with specific antibodies for p38 (1:1000, #9212, Cell Signaling Technology, USA), phospho-p38 (1:1000, #9211; Cell Signaling technology), p53 (1:1000, #9282, Cell signalling technology), phospho-p53 (1:1000, #9284, Cell Signaling technology), snail (1:1000, #C15D3, Cell Signaling technology), slug (1:1000, #C19G7, Cell signalling technology) and GAPDH (1:5000, #ABM22C5, Abgenex, India) followed by incubation with HRP tagged anti-mouse IgG secondary antibody (Abgenex) for GAPDH and HRP tagged anti-rabbit IgG secondary antibody (Abgenex) for p38, phospho-p38, p53, phospho-p53, snail and slug. The chemiluminescence signal was detected in ChemiDoc XRS + (Bio-Rad) using SuperSignal™ West Femto reagent (Thermo Scientific).

[3] = system: HeLa cells; experiment: Cell cycle analysis by flow cytometry (PI); assay type: cell-based; conditions: 18 h, 6e 18 μM, 6j 19 μM, 6n 19 μM
Protocol: HeLa cells were cultured in 6 well plates with initial density 0.5 × 10^6 cells/well. These cells were treated with the IC50 concentration of 6n, 6j, and 6e compounds for 18 h. The cells were washed with 1X PBS and fixed with 70% ethanol. After washing, cells were resuspended in 500 μl PBS containing Propidium Iodide (PI) (500 μg/ml), RNase A (1X), and Triton X-100 (0.1%), and incubated for 30 min in the dark. Finally, the cells were analyzed by flow cytometry (BD Biosciences, CA, USA). The relative proportions of cells with DNA content G0–G1 (2n), S phase (>2n but <4n), and G2/M phase (4n) were acquired and analyzed using CellQuest Pro software (BD Biosciences).

[4] = system: HeLa cells; experiment: MTS cell viability assay in HeLa; assay type: cell-based; conditions: for IC50: Homo sapiens
Protocol: (§1) We investigated the effect of nine cATC derivatives (6b/6d/6e/6f/6i/6j/6k/6l/6n) on cell viability in cancer cell-line HeLa and transformed normal cell-line HEK293. We treated cells with the varying concentrations of the compounds ranging from 10 nM to 50 μM for 18 h (optimized).
(§2) MTS assay (CellTiter 96® AQueous One Solution Cell Proliferation Assay (Promega, USA) was used to determine the cell viability. HeLa and HEK293 cells (20,000 cells in each well) were plated in 96 well plate and treated with 6e, 6j, and 6n varying concentrations of the compounds ranging from 10 nM to 50 μM for 18 h. The assay was carried out according to the manufacturer’s instructions. Finally, the plate was read in Varioskan™ LUX multimode microplate reader (Thermo Fisher Scientific) at 490 nm.
(§3) Cell scavenging activity was calculated using the following formula:
(§4) OD(490nm) (control) – OD(490nm) (Test)/OD(490nm) (control) × 100%
(§5) Cell Viability of the cell was calculated using the following formula: […]

[5] = MTS cell viability assay in HeLa; assay type: cell-based; conditions: human, HeLa cells; HeLa, 50 μM, 18 h
Protocol: as §1, §2, §3, §4, §5

[6] = system: ct-DNA duplex; experiment: Circular dichroism of ct-DNA with cATC derivatives; assay type: binding; conditions: increasing concentration of cATC derivatives
Excerpt: Further, we examined the effect of cATC derivatives (6a/6e/6j/6n) on the ct-DNA duplex structure by circular dichroism (CD) studies. We recorded the CD spectra of ct-DNA with the increasing concentration of cATC derivatives (SM, Fig. S24). […] Next, we examined the binding site of cATC derivative (ligand) at the DNA duplex structure by using AutoDock-Vina, a well-reported computational docking program. We performed docking of cATC derivatives (6a/6d/6k) crystal structure (ligand) with dodecamer DNA duplex crystal structure (PDB ID-1BNA) as the receptor. Our docking results strongly support the non-covalent interaction of cATC derivatives (6a/6d/6k) at the DNA-minor groove with the binding affinity ~7.0 Kcal/mole, mostly hydrophobic interactions (SM, Figs. S25–7, Table S8). […] Overall, cATC derivatives non-covalently bind with DNA duplex through the non-intercalative mode without affecting the native duplex structure. Next, we examined the DNA binding affinity of cATC derivatives (6e/6j/6n) by gel-electrophoresis. The different concentrations of human genomic DNA were treated with EtBr (control) and cATC derivatives (6e/6j/6n) and ran on 1% agarose gel (SM, Fig. S28A–D). […] Further, the Microscale thermophoresis (MST) technique was used to calculate the binding affinities of cATC derivatives (6e/6j/6n) (20 µM) with varying concentrations of human genomic DNA (40 fM to 75 pM).

## Cc1cccc(C2C(C(=O)[O-])N(CCc3ccccc3)c3ccccc[c+]3N2Cc2ccccc2)c1 (stereo not shown) [Compound 6e]
[1]
  effect on cell migration in scratch wound: inhibited cell migration significantly
[2]; dose-dependent, 0-19 µM
  E-Cadherin expression: increased expression of E-Cadherin
  expression of EMT markers (N-Cadherin, Snail, Slug): decreased expression of EMT markers
[2]; increasing concentration 0-18 μM (6e), 0-19 μM (6j, 6n)
  phospho-P53 and phospho-P38 levels: gradual increase in phospho-P53 and phospho-P38 levels
[3]; control 24.36%
  cells in G2/M phase: 7.05%
[3]; control 28.84%
  cells in S phase: 34.61%
[3]; control 46.78%
  cells in G0/G1 phase: 58.33%
[4]; 10 nM to 50 μM, 18 h
  effect on HeLa cell proliferation: retarded HeLa cell proliferation in a dose dependent manner
[4]; HeLa, 50 μM, 18 h
  Cell scavenging: 84.74%
[4]; HeLa, values given in rebuttal letter of peer review file
  IC50: 25.4 µM
[4]; MTS, 18 h, cell line not named in the sentence (HeLa implied)
  IC50: 25.3 µM
[5]
  viability at 18 h, 50 µM: 15.2%
[6]
  effect on B-type duplex CD spectrum of ct-DNA: almost remained unchanged
